Here are results for 2 molecules from patent US5846976A, “Androstenone derivative” (Glaxo Wellcome Inc., priority 1996, dated 1998).

Series [1] has as its system porcine granulosa cell 3β-hydroxy-Δ^5-steroid dehydrogenase/3-keto-Δ^5-steroid isomerase (3BHSD). The note with it: Tan et al. 1987; Brandt and Levy 1989; cited from earlier work.
The conditions of series [2]: McConnell 1990; Rasmusson et al. 1984; cited from earlier work.
For series [3], the system named is bovine adrenal 3β-hydroxy-Δ^5-steroid dehydrogenase/3-keto-Δ^5-steroid isomerase (3BHSD). As to conditions: Tan et al. 1987; Brandt and Levy 1989; cited from earlier work.
Series [4] can be described thus: Half-life compared to finasteride and SKF105657.
For series [5], the target named is T1, human type 1 5α-reductase (Homo sapiens, UniProt P18405).
T1 construct: made in house; host or cells: SF9 insect cells infected with recombinant baculovirus (microsomes)
T1 sequence (P18405 1-259): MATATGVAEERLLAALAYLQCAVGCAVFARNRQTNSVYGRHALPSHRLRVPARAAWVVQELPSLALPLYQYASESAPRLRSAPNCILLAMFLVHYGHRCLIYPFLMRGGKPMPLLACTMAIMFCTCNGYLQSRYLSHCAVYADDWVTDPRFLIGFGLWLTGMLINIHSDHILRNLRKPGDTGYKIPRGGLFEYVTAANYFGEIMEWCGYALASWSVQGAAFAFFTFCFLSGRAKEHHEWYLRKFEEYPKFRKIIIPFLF
Description: Steroid 5α-reductase type 1 inhibition (microsomes, conversion of testosterone to DHT). The series is classed as biochemical. On the procedure:
(§1) Enzyme activies may be determined using microsomes derived from: 1) prostate tissue from benign prostatic hyperplasia (BPH) patients; 2) recombinant baculovirus infected SF9 cells that express human type 1 5α-reductase; or 3) recombinant baculovirus infected SF9 cells that express human type 2 5α-reductase. Microsomes were prepared by homogenization of the tissue or cells, followed by differential centrifugation of the homogenate. Microsome extracts were incubated with varying concentrations of [1,2,6,7-3H]-testosterone, 1 mM NADPH, and varying amounts of the compounds of Formula I, i.e. a test compound, in buffer containing a NADPH regenerating system capable of maintaining NADPH concentrations for a period of time within the range 0.5-240 minutes. Corresponding incubations were carried out with no test compound as a control study. For clone 1 IC50 measurements, assay components except testosterone were preincubated for 10 minutes at pH 7.0, and following the addition of 100 nM testosterone the assays were allowed to proceed for 10-120 minutes. For clone 2 IC50 measurements, assay components except testosterone were preincubated for 20 minutes at pH 6.0, and following the addition of 8 nM testosterone the assays were allowed to proceed for 20-40 minutes. […]

Series [6] deals with T2, human type 2 5α-reductase (Homo sapiens, UniProt P31213).
T2 construct: made in house; host or cells: SF9 insect cells infected with recombinant baculovirus (microsomes)
T2 sequence (P31213 1-254): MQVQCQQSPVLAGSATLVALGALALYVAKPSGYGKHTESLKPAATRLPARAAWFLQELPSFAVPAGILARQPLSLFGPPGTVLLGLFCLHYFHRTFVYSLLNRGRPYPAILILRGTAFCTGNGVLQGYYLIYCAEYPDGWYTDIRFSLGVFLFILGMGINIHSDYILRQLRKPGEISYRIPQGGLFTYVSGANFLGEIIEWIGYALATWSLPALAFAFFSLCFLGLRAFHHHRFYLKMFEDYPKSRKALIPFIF
Description: Steroid 5α-reductase type 2 inhibition (microsomes, conversion of testosterone to DHT). Type of series: biochemical. On the procedure:
as §1

Another series deals with T3, Human Adrenal 3BHSD (Homo sapiens, UniProt P26439).
T3 construct: microsomes derived from human adrenal tissues; from tissue; host or cells: human adrenal tissue (microsomes)
T3 sequence (P26439 1-372): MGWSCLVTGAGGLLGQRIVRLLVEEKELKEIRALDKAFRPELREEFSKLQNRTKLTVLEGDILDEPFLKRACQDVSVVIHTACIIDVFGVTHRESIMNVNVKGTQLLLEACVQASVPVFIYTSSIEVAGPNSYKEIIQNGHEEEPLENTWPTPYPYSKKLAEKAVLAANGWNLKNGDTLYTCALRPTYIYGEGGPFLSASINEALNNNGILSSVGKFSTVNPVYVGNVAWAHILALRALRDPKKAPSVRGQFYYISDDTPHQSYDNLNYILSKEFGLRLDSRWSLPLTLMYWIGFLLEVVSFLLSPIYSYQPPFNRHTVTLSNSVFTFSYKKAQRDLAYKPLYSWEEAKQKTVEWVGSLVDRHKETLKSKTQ
The series is described as follows: Human adrenal 3β-hydroxy-Δ^5-steroid dehydrogenase/3-keto-Δ^5-steroid isomerase inhibition (microsomes, conversion of DHEA to androstenedione). The series is classed as biochemical. As for the experimental part: Enzyme activities are measured using microsomes derived from human adrenal tissues. Microsomes were prepared by homogenization of the tissue followed by differential centrifugation of the homogenate. Microsome extracts were incubated with varying concentrations of dehydroepiandrosterone (DHEA), 1 mM NAD+, and varying amounts of the compound of Formula (I), i.e. a test compound, in pH 7.5 buffer for a period of time within the range of 1 to 60 minutes. Corresponding incubations were carried out with no test compound as a control study. The percentage of conversion of DHEA to androstenedione in the presence of test compounds compared to the corresponding conversion in the control study was estimated using HPLC with radiochemical detection.

Another series relates to 5α-reductase. The series is described as follows: Potency compared to finasteride and SKF105657.

In the case of `CCN(CC)C(=O)[C@H]1CC[C@H]2[C@@H]3CC[C@H]4N(C)C(=O)CC[C@]4(C)[C@H]3CC[C@]12C` [4-MA], the “inhibition of porcine granulosa cell 3BHSD” value in series [1] is “potent inhibition”. Moreover, the hepatotoxicity entry in series [2] is on record as “hepatotoxicity”. Further, the “inhibition of bovine adrenal 3BHSD” value in series [3] was “potent inhibition”.

In the case of `C[C@]12C=CC(=O)N[C@@H]1CC[C@@H]1[C@@H]2CC[C@]2(C)[C@@H](C(=O)Nc3cc(C(F)(F)F)ccc3C(F)(F)F)CC[C@@H]12` [compound of formula (I), 17β-N-(2,5-bis(Trifluoromethyl))phenylcarbamoyl-4-aza-5α-androst-1-en-3-one], the half-life entry in series [4] is recorded as “surprisingly long half-life”. The IC50 in series [5] and in series [6] was less than 1 nM throughout. The Ki on Human Adrenal 3BHSD was greater than 1000 nM. In the series with 5α-reductase, the potency entry was “surprisingly long half-life and potency compared to finasteride and SKF105657”.
